From patent US10183019B2, “Treatment of cancer with dihydropyrazino-pyrazines” (Signal Pharmaceuticals, LLC, priority 2013, dated 2019)

How the values were obtained:
Experiment in all cases: Gliomasphere Cell Number Assay
Format in all cases: cell-based
[1] = system: patient-derived GBM cell line 296; details: cell line 296, Recurrent, MGMT status −; 50% cell numbers vs DMSO control, Day 2 to Day 9; read-out: IC50 Cell Survival
Experimental: (§1) Gliomasphere Cell Number Assay. Primary patient-derived GBM tumor samples were dissociated and plated under culture conditions that produce gliomaspheres (i.e. DMEM/F12 medium supplemented with B27, 20 ng/mL bFGF, 50 ng/mL EGF, penicillin/streptomycin, L-glutamine and 5 ug/mL heparin). Cells were plated at a density of 5000 cells/well and allowed to acclimate overnight at 37° C. The Dihydropyrazino-Pyrazine Compounds were added to the cultures on Day 2 and cells were kept in culture until Day 9. On Day 9, the cells were fixed with PFA/methanol and the next day assessed for cell number, using for example, SYTO-9 fluorescent DNA dye. Plates were read 48 h later with a laser scanning imager.

[2] = system: patient-derived GBM cell line 207; details: cell line 207, Recurrent; 50% cell numbers vs DMSO control, Day 2 to Day 9; read-out: IC50 Cell Survival
Experimental: as §1

[3] = system: patient-derived GBM cell line 374; details: cell line 374, Primary, MGMT status −; 50% cell numbers vs DMSO control, Day 2 to Day 9; read-out: IC50 Cell Survival
Experimental: as §1

[4] = system: patient-derived GBM cell line 393; details: cell line 393, Primary, MGMT status +; 50% cell numbers vs DMSO control, Day 2 to Day 9; read-out: IC50 Cell Survival
Experimental: as §1

[5] = system: patient-derived GBM cell line 254; details: cell line 254, Recurrent; 50% cell numbers vs DMSO control, Day 2 to Day 9; read-out: IC50 Cell Survival
Experimental: as §1

[6] = system: patient-derived GBM cell line 248; details: cell line 248, Recurrent, MGMT status Slightly elevated; 50% cell numbers vs DMSO control, Day 2 to Day 9; read-out: IC50 Cell Survival
Experimental: as §1

[7] = system: patient-derived GBM cell line 347; details: cell line 347, Recurrent, MGMT status −; 50% cell numbers vs DMSO control, Day 2 to Day 9; read-out: IC50 Cell Survival
Experimental: as §1

[8] = system: patient-derived GBM cell line 250; details: cell line 250, Recurrent, MGMT Unkn/Highly Expressed; 50% cell numbers vs DMSO control, Day 2 to Day 9; read-out: IC50 Cell Survival
Experimental: as §1

[9] = system: patient-derived GBM cell line 378; details: cell line 378, Recurrent, MGMT status −; 50% cell numbers vs DMSO control, Day 2 to Day 9; read-out: IC50 Cell Survival
Experimental: as §1

[10] = system: patient-derived GBM cell line 308; details: cell line 308, Recurrent, MGMT Unkn/Highly Expressed; 50% cell numbers vs DMSO control, Day 2 to Day 9; read-out: IC50 Cell Survival
Experimental: as §1

[11] = system: patient-derived GBM cell line 390; details: cell line 390, Primary, MGMT status −; 50% cell numbers vs DMSO control, Day 2 to Day 9; read-out: IC50 Cell Survival
Experimental: as §1

[12] = system: patient-derived GBM cell line 301; details: cell line 301, Primary, MGMT status −; 50% cell numbers vs DMSO control, Day 2 to Day 9; read-out: IC50 Cell Survival
Experimental: as §1

[13] = system: patient-derived GBM cell line 157; details: cell line 157, Primary, MGMT status −; 50% cell numbers vs DMSO control, Day 2 to Day 9; read-out: IC50 Cell Survival
Experimental: as §1

[14] = system: patient-derived GBM cell line 277; details: cell line 277, Secondary/Recurrent; 50% cell numbers vs DMSO control, Day 2 to Day 9; read-out: IC50 Cell Survival
Experimental: as §1

[15] = system: patient-derived GBM cell line 371; details: cell line 371, Recurrent, MGMT status −; 50% cell numbers vs DMSO control, Day 2 to Day 9; read-out: IC50 Cell Survival
Experimental: as §1

[16] = system: patient-derived GBM cell line 245; details: cell line 245, Recurrent; 50% cell numbers vs DMSO control, Day 2 to Day 9; read-out: IC50 Cell Survival
Experimental: as §1

[17] = system: patient-derived GBM cell line 350; details: cell line 350, Recurrent; 50% cell numbers vs DMSO control, Day 2 to Day 9; read-out: IC50 Cell Survival
Experimental: as §1

[18] = system: patient-derived GBM cell line 336; details: cell line 336, Recurrent, MGMT status +; 50% cell numbers vs DMSO control, Day 2 to Day 9; read-out: IC50 Cell Survival
Experimental: as §1

[19] = system: patient-derived GBM cell line 229; details: cell line 229, Recurrent; 50% cell numbers vs DMSO control, Day 2 to Day 9; read-out: IC50 Cell Survival
Experimental: as §1

[20] = system: patient-derived GBM cell line 206; details: cell line 206, Recurrent, MGMT Unkn/Highly Expressed; 50% cell numbers vs DMSO control, Day 2 to Day 9; read-out: IC50 Cell Survival
Experimental: as §1

[21] = system: patient-derived GBM cell line 217; details: cell line 217, Primary; 50% cell numbers vs DMSO control, Day 2 to Day 9; read-out: IC50 Cell Survival
Experimental: as §1

## CCN1C(=O)CNc2ncc(-c3ccc(-c4nc[nH]n4)nc3C)nc21 [Compound 1, 1-ethyl-7-(2-methyl-6-(1H-1,2,4-triazol-3-yl)pyridin-3-yl)-3,4-dihydropyrazino[2,3-b]pyrazin-2(1H)-one]
[1]
  IC50: 74.5 nM
[2]
  IC50: 100 nM
[3]
  IC50: 165 nM
[4]
  IC50: 178 nM
[5]
  IC50: 99.6 nM
[6]
  IC50: 441 nM
[7]
  IC50: 163 nM
[8]
  IC50: 70.6 nM
[9]
  IC50: 81.3 nM
[10]
  IC50: 68.2 nM
[11]
  IC50: 65.9 nM
[12]
  IC50: 313 nM
[13]
  IC50: 46.8 nM
[14]
  IC50: 107 nM
[15]
  IC50: 368 nM
[16]
  IC50: 68.7 nM
[17]
  IC50: 99.6 nM
[18]
  IC50: 231 nM
[19]
  IC50: 115 nM
[20]
  IC50: 163 nM
[21]
  IC50: 71.9 nM
